Measured values from patent US6599754B2, “Biphasic reaction vessel and methods of use” (University of Rochester, priority 2000, dated 2003).

Key:
[1] = Cellulose membrane permeability and partitioning between methylene chloride and water, analysed by LC/MS; format: physicochemical; settings: for transport across cellulose membrane from organic to aqueous layer: LC/MS vial covered with cellulose membrane, methylene chloride / water; for solvent preference from relative LC/MS intensities of the two layers: methylene chloride in LC/MS vial, cellulose membrane, immersed in deionized water for twenty-four hours
Method: One of the key components to this system is the physical separation between the organic chemistry and the biomolecular receptor. As a simple test, starting material was dissolved in methylene chloride at reaction concentration in an LC/MS vial, the vial covered with a cellulose membrane and immersed in glass-distilled, deionized water for twenty-four hours (FIGS. 10A-B). The experiment was analyzed by LC/MS.
Furthermore, enough of the compound is present to detect by LC/MS without having to concentrate the sample.

trypsin = assay: Dynamic library selection experiment against trypsin in the biphasic vessel (LC-MS of extracted ions); settings: 121 compound library, trypsin 43 μM and 257 μM vs trypsin free control, 18 hours incubation; not verified by binding or inhibition constant
Method: Selection experiments: 1,4-diacetoxycyclopent-2-ene, methoxyphenylacetic acid, hydrocinnamic acid, isovaleric acid, 4-pentynoic acid, cyclopentane carboxylic acid, cis-pinonic acid, tetrahydro-2-furoic acid, 2 -phenylpropionic acid, 2-cyclopentene-1-acetic acid, (−)-methoxyacetic acid and triethyl phosphite were weighed in 4 mL vials in the open atmosphere. Palladium tetrakistriphenylphosphine was added to the vial containing triethylphosphite under a nitrogen atmosphere inside a glove box. The reagents were diluted with freshly distilled methylene chloride under the nitrogen atmosphere. Stock solutions of 1,4 -diacetoxycyclopent-2-ene (2 M), methoxyphenylacetic acid (1.8 M), hydrocinnamic acid (1.8 M), isovaleric acid (1.8 M), 4-pentynoic acid (1.8 M), cyclopentane carboxylic acid (1.8 M), cis-pinonic acid (1.8 M), tetrahydro-2-furoic acid (1.8 M), 2-phenylpropionic acid (1.8 M), 2-cyclopentene-1-acetic acid (1.8 M), (−)-methoxyacetic acid (1.8 M) and palladium tetrakistriphenylphosphine (90 mM) with triethyl phosphite (360 mM) were prepared. An aliquot (611 μL) was removed from each of the ten acid stock solutions, added to a pear shaped flask, and evaporated to dryness. […]
Organic and aqueous samples were analyzed by electrospray LC-MS in positive ionization mode using an acetonitrile: water 1% trifluoroacetic acid gradient elution (30% CH3CN—90%). […]

SMILES | transport across cellulose membrane from organic to aqueous layer [1] | solvent preference from relative LC/MS intensities of the two layers [1] | correlation of amount of compound (ion intensity) with presence of trypsin (trypsin)
CC(=O)OC1C=CC(OC(C)=O)C1 (stereo not drawn) [1,4-diacetoxycyclopent-2-ene] | sufficient ability to undergo membrane transport | organic preference | –
CC(=O)OC1C=CC(OC(=O)CC2C=CCC2)C1 (stereo not drawn) [1-acetoxy-4-(2-cyclopentene-1-acetoxy)cyclopent-2-ene] | – | – | strong correlation
COC(C(=O)OC1C=CC(OC(C)=O)C1)c1ccccc1 (stereo not drawn) [1-acetoxy-4-(methoxyphenylacetoxy)cyclopent-2-ene] | present at thirteen minutes in the aqueous layer | – | –
COC(C(=O)O)c1ccccc1 (stereo not drawn) [methoxyphenylacetic acid] | sufficient ability to undergo membrane transport | aqueous preference | –
